Patent US20120214824A1, “PROTEOSTASIS REGULATORS” (priority 2010, published 2012)

Key:
[1] = system: medium spiny neurons in rat brain slices transfected with human mutant huntingtin-based constructs; experiment: Huntington's disease brain slice-based screening assay; type: cell-based; conditions: ex vivo rat brain slices transfected with Htt-exon1-Q73 construct; at concentrations from 0.1 uM to 3 uM (tested 0.03, 0.1, 0.3, 1 and 3 uM)
Method: The FIGURE is a bar graph showing the number of healthy medium spiny neurons in rat brain slices for YFP, mN90Q73, KW+SP (positive control) and for [4-(2-isopropoxyphenyl)-2-methyl-5-oxo-7-(thiophen-2-yl)-1,4,5,6,7,8-hexahydroquinoline-3-carbonitrile] exposure at 0.03, 0.1, 0.3, 1 and 3 uM. Hemi-coronal brain slices containing striatum were prepared and transfected with control and huntingtin (Htt) constructs. YFP is Yellow Fluorescence Protein (YFP) plus vector. mN90Q73 is YFP plus the Htt-exon1-Q73 construct. The combination of KW-6002 (50 uM) and SP600125 (30 uM) was used as a positive control.
Selected compounds that modulated proteostasis network genes were tested in an ex vivo screening assay in which rat brain slices were transfected with human mutant huntingtin-based constructs as described in Reinhart et al., Identification of anti-inflammatory targets for Huntington's disease using a brain slice-based screening assay, Neurobiology of Disease (2011), 43(1), 248-256, the contents of which are expressly incorporated by reference herein. Hemi-coronal brain slices containing striatum were prepared and transfected with control and huntingtin (Htt) constructs.
50 uM KW-6002 (Istradefylline) in combination with 30 uM SP600125 was used as a positive control. YFP is Yellow Fluorescence Protein (YFP) plus vector. mN90Q73 is YFP plus the Htt-exonl-Q73 construct. […]

firefly luciferase = experiment: Luciferase folding assay (Lucif.); type: cell-based, human; conditions: HeLa-luciferase cells; Table 1a
Source text: Firefly luciferase is a commonly used bioluminescent reporter. This monomeric enzyme of 61 kDa catalyzes a two-step oxidation reaction to yield light, usually in the green to yellow region, typically 550-570 nm. The first step of this reaction is activation of the luciferyl carboxylate by ATP to yield a reactive mixed anhydride. In the second step, the activated intermediate reacts with oxygen to create a transient dioxetane that breaks down to the oxidized products, oxyluciferin and CO2. Upon mixing with substrates, firefly luciferase produces an initial burst of light that decays over about 15 seconds to a low level of sustained luminescence. This kinetic profile reflects the slow release of the enzymatic product, thus limiting catalytic turnover after the initial reaction.
This mammalian cell based assay that used firefly luciferase as a sensor was used to screen for compounds that may modulate the cellular folding environment.
HeLa luciferase cell lines: Frozen bullets containing the cells were thawed briefly at 37° C. then placed into a T-150 flask containing 30-35 ml DMEM medium+Penicillin/Strep (1% final+10% FBS (final)+Geneticin @ 200-500 ug/ml. Cell cultures were maintained at 37° C. with 5% CO2 and water in the bottom of the incubator to keep cells healthy. Upon expanding cell line, luciferase measurements were taken to make sure that activity levels were between 2000-5000 (RLU) when plated at 15K/well in a 96-well format (Bright-Glo Promega) before compound treatment.
Compound treatment of HeLa-luciferase cells: HeLa-luciferase WT cells were plated in a 96-well format at 15K/well the day prior to performing compound treatment and/or luciferase assay. […] Final volume used per well was 90 uL. Flat bottom, white polystyrene plates were used for plating the cells.
For compound treatment, stocks of compounds were made up at 10 mM concentration in DMSO. Stocks compounds were diluted by 100× fold in the same media used for culturing the cells—this leads to a 0.1 mM (or 100 uM) concentration. After diluting the compound in media, 10 uL of the 100 uM solution was placed into each well of cells (90 uL); making the final concentration of the compound 10 uM. If serial dilutions of compounds were tested, serial dilutions of compounds were first made in DMSO accordingly, and further diluted in the media, prior to adding to cells. This procedure allowed for constant final levels of DMSO concentrations, regardless of initial compound concentration.
Performing luciferase activity assay: Bright-Glo Luciferase Assay Reagent (Promega cat #: E2610, E2620, E2650) was thawed out at RT in a water bath. Alternatively, Bright-Glo Luciferase assay buffer (prior to mixing with substrate) was stored overnight at RT, prior to using.
Following compound treatment, plates were removed from 37° C. and allowed to acclimate to RT for 5-10 min. Bright-Glo reagent was added to each cell-containing well in a 1:1 ratio (e.g., 100 uL of Bright Glo for each 100 uL cells).
Plates were placed on a plate shaker for 5 min, removing any air bubbles on the surface (which may interfere with proper reads), and then read on an EnVision 2104 Multilabel reader, Emission filter Luminescence 700, barcode 212, WL 400-700 nm.
Data for representative compounds in this assay are shown under the heading “Lucif.”

HSPA1a = experiment: Multigene assay (QuantiGene Plex 2.0), mouse MEF cell line; type: cell-based; conditions: 6 hours post-compound treatment, Table 1b
Outline: (§1)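 Cells were treated with 7-point serial dilutions of compound for 6 h, then lysed and hybridized overnight at 54° C. with multiplex bDNA probe sets on xMAP magnetic beads. SAPE fluorescence was read on a Luminex FlexMap3D; fold change was normalized to DMSO, then to TBP or alpha-tubulin.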

HMOX = experiment: as above; type: cell-based; conditions: 6 hours post-compound treatment, Table 1b
Outline: as §1

BCL2 = experiment: as above; type: cell-based; conditions: 6 hours post-compound treatment, Table 1b
Outline: as §1

DDIT3 = experiment: as above; type: cell-based; conditions: 6 hours post-compound treatment, Table 1a
Outline: as §1

GCLM = experiment: as above; type: cell-based; conditions: 6 hours post-compound treatment, Table 1a
Outline: as §1

HspA5 = experiment: as above; type: cell-based; conditions: 6 hours post-compound treatment, Table 1b
Outline: as §1

TUB1 = experiment: as above; type: cell-based; conditions: 6 hours post-compound treatment, Table 1a
Outline: as §1

Question: How did the “medium spiny neurons viability (number of healthy medium spiny neurons)” value [1] turn out when `CC1=C(C#N)C(c2ccccc2OC(C)C)C2=C(CC(c3cccs3)CC2=O)N1` (stereo not drawn) [drawing 26/Me/CN/o-OCHMe2, 4-(2-isopropoxyphenyl)-2-methyl-5-oxo-7-(thiophen-2-yl)-1,4,5,6,7,8-hexahydroquinoline-3-carbonitrile] was run?
Answer: improved medium spiny neurons viability

Question: What about the “Lucif. (luciferase activity induction)” value (firefly luciferase) of the same compound?
Answer: + (+ indicates a induction of greater than 2 fold)

Question: What about the HSPA1a gene induction (HSPA1a) of the same compound?
Answer: − (− Indicates less than 2 fold induction)

Question: And the HMOX gene induction (HMOX)?
Answer: − (− Indicates less than 2 fold induction)

Question: What about the BCL2 gene induction (BCL2) of the same compound?
Answer: − (− Indicates less than 2 fold induction)

Question: What about the DDIT3 gene induction (DDIT3) of the same compound?
Answer: − (− Indicates less than 2 fold induction)

Question: And the GCLM gene induction (GCLM)?
Answer: − (− Indicates less than 2 fold induction)

Question: What about the HspA5 gene induction (HspA5) of the same compound?
Answer: − (− Indicates less than 2 fold induction)

Question: What about the TUB1 gene induction (TUB1) of the same compound?
Answer: − (− Indicates less than 2 fold induction)
